Source: US20250382273A1 (INSTITUT NATIONAL DE LA SANTE ET DE LA RECHERCHE MEDICALE, priority 2022, published 2025)
Like-named read-outs stand apart in the source and are kept apart here.

Legend:
[1] = tested on: M. tuberculosis H37Rv_gfp; assay type: cell-based, Mycobacterium tuberculosis
[2] = tested on: M. tuberculosis H37Rv_gfp; assay type: cell-based, Mycobacterium tuberculosis; conditions: in combination with delamanid 4 ng·mL−1, 5 days at 37° C.

## O=C(Nc1nc2ccc(Oc3cc(C(F)(F)F)ccn3)cc2s1)[C@@H]1C2C=CC(C2)[C@@H]1C(=O)O (stereo partly drawn) [Example 27, 3-[[6-[[4-(trifluoromethyl)-2-pyridyl]oxy]-1,3-benzothiazol-2-yl]carbamoyl]bicyclo[2.2.1]hept-5-ene-2-carboxylic acid]
[1]; in combination with pretomanid 20 ng·mL−1, 5 days at 37° C., […], read-out: EC50 H37Rv_gfp
  EC50: < 1 µM
[1]; in combination with pretomanid, unit inferred, read-out: average EC50 H37Rv_gfp
  EC50: 0.11 µM
[2]
  EC50: 0.15 µM
